Laboratory results: ChEMBL document CHEMBL1152357, “Synthesis and biological activity of heteroaryl 3-(1,1-dioxo-2H-(1,2,4)-benzothiadizin-3-yl)-4-hydroxy-2(1H)-quinolinone derivatives as hepatitis C virus NS5B polymerase inhibitors” (Bioorg Med Chem Lett, 2009)

How the values were obtained:
Hepatitis C virus [1] = assay: Antiviral activity against HCV 1b infected in human hepatoma cells by replicon assay; type: functional, organism-based, Hepacivirus hominis; conditions: genotype 1b
Albumin = Albumin (Homo sapiens, UniProt P02768); assay: Binding affinity to human serum albumin; type: ADME; conditions: isolated protein
Chain of Albumin (P02768 whole entry): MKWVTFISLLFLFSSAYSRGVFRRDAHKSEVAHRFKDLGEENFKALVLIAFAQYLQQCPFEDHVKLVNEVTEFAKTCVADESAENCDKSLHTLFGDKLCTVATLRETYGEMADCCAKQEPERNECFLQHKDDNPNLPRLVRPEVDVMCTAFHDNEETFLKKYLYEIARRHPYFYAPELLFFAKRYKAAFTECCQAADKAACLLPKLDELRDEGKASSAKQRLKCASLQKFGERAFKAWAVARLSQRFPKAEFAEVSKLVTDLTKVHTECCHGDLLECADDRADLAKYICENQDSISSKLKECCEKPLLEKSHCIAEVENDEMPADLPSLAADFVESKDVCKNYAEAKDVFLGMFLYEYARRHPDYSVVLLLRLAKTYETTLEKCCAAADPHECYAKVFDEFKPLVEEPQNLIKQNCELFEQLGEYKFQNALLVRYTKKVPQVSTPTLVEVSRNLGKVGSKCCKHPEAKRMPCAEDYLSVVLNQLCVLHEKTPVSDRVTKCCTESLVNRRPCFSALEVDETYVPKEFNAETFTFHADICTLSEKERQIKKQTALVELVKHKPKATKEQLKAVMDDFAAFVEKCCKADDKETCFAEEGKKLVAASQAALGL

Hepatitis C virus [2] = assay: Inhibition of HCV 1b NS5B polymerase expressed in Sf9 cells; set-up: species or system Hepatitis C virus subtype 1b

## CC(C)CCn1c(=O)c(C2=NS(=O)(=O)c3cc(O[C@H](C)C(N)=O)ccc3N2)c(O)c2sccc21
Hepatitis C virus [1]
  IC50: 114 nM
Albumin
  Activity: 98.3%
Hepatitis C virus [2]
  IC50: < 5 nM

## CC(C)CCn1c(=O)c(C2=Nc3ccc(OCC(N)=O)cc3S(=O)(=O)N2)c(O)c2cccnc21
Hepatitis C virus [1]
  IC50: 52 nM
Albumin
  Activity: 98.4%
Hepatitis C virus [2]
  IC50: < 5 nM

## CCN1CCC2=C(C1)S(=O)(=O)N=C(c1c(O)c3ccccc3n(CCC(C)C)c1=O)N2
Hepatitis C virus [1]
  IC50: 40000 nM
Albumin
  Activity: 97.9%
Hepatitis C virus [2]
  IC50: 679 nM

## CSc1ncc2c(O)c(C3=NS(=O)(=O)c4ccccc4N3)c(=O)n(CCC(C)C)c2n1
Hepatitis C virus [2]
  IC50: > 30000 nM

## CC(C)CCn1c(=O)c(C2=NS(=O)(=O)c3cc(OCC(N)=O)ccc3N2)c(O)c2sccc21
Hepatitis C virus [1]
  IC50: 126 nM
Albumin
  Activity: 98.3%
Hepatitis C virus [2]
  IC50: < 5 nM

## CC(C)CCn1c(=O)c(C2=NS(=O)(=O)c3ncccc3N2)c(O)c2ccccc21
Hepatitis C virus [1]
  IC50: 743 nM
Albumin
  Activity: 98.7%
Hepatitis C virus [2]
  IC50: 31 nM

## CC(C)CCn1c(=O)c(C2=NS(=O)(=O)c3ccccc3N2)c(O)c2cc(Br)sc21
Albumin
  Activity: > 99.9%
Hepatitis C virus [2]
  IC50: 1170 nM

## CC(C)CCn1c(=O)c(C2=NS(=O)(=O)c3cnccc3N2)c(O)c2ccccc21
Hepatitis C virus [1]
  IC50: 226 nM
Albumin
  Activity: 99%
Hepatitis C virus [2]
  IC50: 20 nM

## O=c1c(C2=NS(=O)(=O)c3cc(O)ccc3N2)c(O)c2cccnc2n1CCC1CC1
Hepatitis C virus [1]
  IC50: 542 nM
Albumin
  Activity: 98.8%
Hepatitis C virus [2]
  IC50: 12 nM

## CC(C)CCn1c(=O)c(C2=NS(=O)(=O)C3=C(CCN(CCCN)C3)N2)c(O)c2ccccc21
Albumin
  Activity: 98.3%
Hepatitis C virus [2]
  IC50: 728 nM

## CC(C)CCn1c(=O)c(C2=NS(=O)(=O)c3cc(O)ccc3N2)c(O)c2ccsc21
Hepatitis C virus [1]
  IC50: 471 nM
Albumin
  Activity: 99.1%
Hepatitis C virus [2]
  IC50: 25 nM

## CC(C)CCn1c(=O)c(C2=NS(=O)(=O)c3ccccc3N2)c(O)c2cc(-c3ccccc3)sc21
Hepatitis C virus [2]
  IC50: > 30000 nM

## CC(C)CCn1c(=O)c(C2=NS(=O)(=O)C3=C(CCNC3)N2)c(O)c2ccccc21
Hepatitis C virus [1]
  IC50: 12200 nM
Albumin
  Activity: 98.2%
Hepatitis C virus [2]
  IC50: 604 nM

## CC(C)CCn1c(=O)c(C2=NS(=O)(=O)c3ccsc3N2)c(O)c2ccccc21
Hepatitis C virus [1]
  IC50: 2890 nM
Albumin
  Activity: 99.5%
Hepatitis C virus [2]
  IC50: 20 nM

## CC(C)CCn1c(=O)c(C2=NS(=O)(=O)C3=C(CCN(CCc4nnn[nH]4)C3)N2)c(O)c2ccccc21
Hepatitis C virus [1]
  IC50: > 30000 nM
Albumin
  Activity: 98.7%
Hepatitis C virus [2]
  IC50: 289 nM

## CC(C)CCn1c(=O)c(C2=NS(=O)(=O)c3c(sc(Cl)c3Br)N2)c(O)c2ccccc21
Hepatitis C virus [2]
  IC50: 3020 nM

## CC(C)CCn1c(=O)c(C2=NS(=O)(=O)c3cc(Cl)sc3N2)c(O)c2ccccc21
Hepatitis C virus [1]
  IC50: > 20000 nM
Hepatitis C virus [2]
  IC50: 57 nM

## CC(C)CCn1c(=O)c(C2=NS(=O)(=O)c3c(cc[nH]c3=O)N2)c(O)c2ccccc21
Hepatitis C virus [1]
  IC50: 13700 nM
Hepatitis C virus [2]
  IC50: 16 nM

## CNC(=O)N1CCC2=C(C1)S(=O)(=O)N=C(c1c(O)c3ccccc3n(CCC(C)C)c1=O)N2
Albumin
  Activity: 98.2%
Hepatitis C virus [2]
  IC50: 774 nM

## CC(C)CCn1c(=O)c(C2=NS(=O)(=O)c3ccccc3N2)c(O)c2cn[nH]c21
Albumin
  Activity: 97.6%
Hepatitis C virus [2]
  IC50: 4940 nM

## CC(C)CCn1c(=O)c(C2=NS(=O)(=O)c3cc(O)ccc3N2)c(O)c2sccc21
Hepatitis C virus [1]
  IC50: 1190 nM
Albumin
  Activity: 99%
Hepatitis C virus [2]
  IC50: 16 nM

## CC(C)CCn1c(=O)c(C2=NS(=O)(=O)c3ccccc3N2)c(O)c2ccccc21
Hepatitis C virus [1]
  IC50: 417 nM
Albumin
  Activity: > 99.9%

## CC(C)CCn1c(=O)c(C2=NS(=O)(=O)c3cc(OCC(N)=O)ccc3N2)c(O)c2ccsc21
Hepatitis C virus [1]
  IC50: 238 nM
Albumin
  Activity: 98.7%
Hepatitis C virus [2]
  IC50: < 5 nM

## CC(C)CCn1c(=O)c(C2=NS(=O)(=O)c3ccccc3N2)c(O)c2ccsc21
Hepatitis C virus [1]
  IC50: 1160 nM
Albumin
  Activity: > 99.9%
Hepatitis C virus [2]
  IC50: 132 nM

## CC(C)CCn1c(=O)c(C2=NS(=O)(=O)c3ccccc3N2)c(O)c2cccnc21
Hepatitis C virus [1]
  IC50: 1360 nM
Albumin
  Activity: > 99.9%
Hepatitis C virus [2]
  IC50: 212 nM

## CC(C)CCn1c(=O)c(C2=NS(=O)(=O)C3=C(CCN(CCC#N)C3)N2)c(O)c2ccccc21
Hepatitis C virus [1]
  IC50: 4320 nM
Hepatitis C virus [2]
  IC50: 132 nM

## CC(C)CCn1c(=O)c(C2=NS(=O)(=O)C3=C(CCN(CC(=O)O)C3)N2)c(O)c2ccccc21
Hepatitis C virus [1]
  IC50: > 20000 nM
Hepatitis C virus [2]
  IC50: 276 nM

## NC(=O)COc1ccc2c(c1)S(=O)(=O)N=C(c1c(O)c3cccnc3n(CCC3CC3)c1=O)N2
Hepatitis C virus [1]
  IC50: 51 nM
Albumin
  Activity: 97.8%
Hepatitis C virus [2]
  IC50: < 5 nM

## CC(C)CCn1c(=O)c(C2=NS(=O)(=O)c3cc(OCC(N)=O)ccc3N2)c(O)c2ccccc21
Hepatitis C virus [1]
  IC50: 15 nM
Albumin
  Activity: 99.2%
Hepatitis C virus [2]
  IC50: 6 nM

## CC(=O)N1CCC2=C(C1)S(=O)(=O)N=C(c1c(O)c3ccccc3n(CCC(C)C)c1=O)N2
Albumin
  Activity: 98%
Hepatitis C virus [2]
  IC50: 1530 nM

## CC(C)CCn1c(=O)c(C2=NS(=O)(=O)c3cc(O)ccc3N2)c(O)c2cccnc21
Hepatitis C virus [1]
  IC50: 473 nM
Albumin
  Activity: 99%
Hepatitis C virus [2]
  IC50: 16 nM

## CC(C)CCn1c(=O)c(C2=NS(=O)(=O)c3ccccc3N2)c(O)c2cnn(C)c21
Albumin
  Activity: 97%
Hepatitis C virus [2]
  IC50: 3340 nM

## CC(C)CCn1c(=O)c(C2=NS(=O)(=O)c3ccccc3N2)c(O)c2sccc21
Hepatitis C virus [1]
  IC50: 942 nM
Albumin
  Activity: > 99.9%
Hepatitis C virus [2]
  IC50: > 48 nM

## C[C@@H](Oc1ccc2c(c1)S(=O)(=O)N=C(c1c(O)c3cccnc3n(CCC3CC3)c1=O)N2)C(N)=O
Albumin
  Activity: 97.8%
Hepatitis C virus [2]
  IC50: < 5 nM

## CC(C)CCn1c(=O)c(C2=NS(=O)(=O)C3=C(CCN(CCC(N)=O)C3)N2)c(O)c2ccccc21
Hepatitis C virus [1]
  IC50: > 20000 nM
Albumin
  Activity: 98%
Hepatitis C virus [2]
  IC50: 288 nM

## Cc1nn(C)c2c1S(=O)(=O)N=C(c1c(O)c3ccccc3n(CCC(C)C)c1=O)N2
Hepatitis C virus [1]
  IC50: > 20000 nM
Albumin
  Activity: 98.5%
Hepatitis C virus [2]
  IC50: 200 nM

## COC(=O)CN1CCC2=C(C1)S(=O)(=O)N=C(c1c(O)c3ccccc3n(CCC(C)C)c1=O)N2
Albumin
  Activity: 97.6%
Hepatitis C virus [2]
  IC50: 879 nM

## CC(C)CCn1c(=O)c(C2=NS(=O)(=O)c3cccnc3N2)c(O)c2ccccc21
Hepatitis C virus [1]
  IC50: 1680 nM
Hepatitis C virus [2]
  IC50: 51 nM

## CC(C)CCn1c(=O)c(C2=NS(=O)(=O)c3c[n+]([O-])ccc3N2)c(O)c2ccccc21
Hepatitis C virus [1]
  IC50: 2380 nM
Albumin
  Activity: 97.7%
Hepatitis C virus [2]
  IC50: 18 nM

## CC(C)CCn1c(=O)c(C2=NS(=O)(=O)C3=C(CCN(C(=O)Nc4ccccc4)C3)N2)c(O)c2ccccc21
Albumin
  Activity: 99.4%
Hepatitis C virus [2]
  IC50: 975 nM

## CC(C)CCn1c(=O)c(C2=NS(=O)(=O)c3cc(O[C@H](C)C(N)=O)ccc3N2)c(O)c2cccnc21
Hepatitis C virus [1]
  IC50: 47 nM
Albumin
  Activity: 98.3%
Hepatitis C virus [2]
  IC50: < 5 nM
